Values quoted from earlier work as cited in patent US20100099775A1, “METHOD FOR AMELIORATING OF POST-ANESTHETIC RECOVERY” (ALPHARX INC., priority 2008, published 2010).

Columns and labels:
[1] = tested on: patients with cerebrovascular disease; conditions: 90 mg daily; nine patients
[2] = tested on: cultured cortical neurons; conditions: also when applied 30 min after the NMDA pulse
[3] = tested on: Friedreich's Ataxia patients; conditions: oral 5 mg/kg daily for 8 weeks
patients = conditions: 5 mg/kg daily for 4-9 months; three patients

COC1=C(OC)C(=O)C(CCCCCCCCCCO)=C(C)C1=O [Idebenone, 2,3-dimethoxy-5-methyl-6-(10-hydroxydecyl)-1,4 benzoquinone]
EEG and clinical symptoms [1]: improvements
protection of cortical neurons against necrotic degeneration [2]: rescued cortical neurons
marker of oxidative DNA damage [3]: significantly decreased
left ventricular enlargement (patients): reduction
Solubility in fixed oils (fixed oils (soy, corn, almond, etc.)): low
water solubility (water): Low
